“Also recorded” adds a separate entry of the source. * marks the point of attachment. C16 alkyl = CCCCCCCCCCCCCCCC*
Key:
IL-13 = IL-13 expression in regenerated bladder tissue (immunofluorescence); format: in vivo, rat; settings: for Cytokine expression (shown as percentage of cells staining positive) Anti-inflammatory IL-13: 5 weeks post-augmentation, means ± SE; for percentage of cells staining positive for IL-13: 10 days post-augmentation
Experimental: (§1) Athymic female rats (weighing ˜200 g and 8-10 weeks old; National Cancer Institute Animal Production Program) underwent bladder augmentation (ref. 15; herein incorporated by reference in its entirety). Athymic rats were chosen for this study to solely examine the innate immune response to inflammation without influence of the adaptive immune response. In order to induce anesthesia, animals were given intraperitoneal injections of 60 mg/kg ketamine and 5 mg/kg xylazine. A second injection consisting of Buprenex (1 mg/kg) was administered subcutaneously to alleviate any pain/discomfort during and following surgical procedures. An approximate 1.5 cm midline vertical skin incision was created to expose the abdominal fascia and muscles. This was immediately followed by the separation of the wall leading to the identification of the bladder. An approximate 70% supratrigonal cystectomy was performed from anterior to posterior creating a clamshell. Immediately prior to bladder augmentation procedures, samples of the pro-inflammatory biological scaffold, small intestinal submucosa (SIS (0.5×0.5 cm); Cook Biotech.) (refs. 12,13,16; herein incorporated by reference in their entireties) were thoroughly dip-coated separately in one of the previously described AIF-PAs following gelation procedures. The sections of SIS were dip-coated for approximately 20 seconds and allowed to adhere to the SIS for an additional 30 seconds. Dip-coating procedures were performed at room temperature in air. The cystectomized bladder defect was then augmented with: 1) SIS (non-AIF-PA coated SIS; n=8 animals over both time-points); 2) AIF-PA1 coated SIS (denoted as SIS/AIF-PA1; n=11 animals over both time-points); 3) AIF-PA2 coated SIS (denoted as SIS/AIF-PA2; n=8 animals over both time-points); 4) AIF-PA3 coated SIS (denoted as SIS/AIF-PA3; n=3); 5) AIF-PA4 coated SIS (denoted as SIS/AIF-PA4; n=3 animals); 6) AIF-PA5 coated SIS (denoted as SIS/AIF-PA5; n=3 animals); and 7) AIFC-PA6 coated SIS (denoted as SIS/AIFC-PA6; n=9 animals over both time-points). The bladder was finally covered with omentum after being closed in a watertight manner utilizing 7-0 polyglactin suture. The abdominal wall was then closed in a single layer with 5-0 ethibond running suture and the skin re-approximated with 9 mm autoclips. Each group was sacrificed at 10 day and 5 week time-points.
(§2) Tissue sections comprised of SIS alone, SIS/AIF-PA1, SIS/AIF-PA2, and SIS/AIF-PA6 augmentations were subjected to immunofluorescence staining by initially undergoing antigen retrieval which consisted of 15 min of boiling in citrate buffer (0.01M citrate solution, pH 6.0 with 0.05% Tween-20) followed by cooling at room temperature for approximately 20 minutes. The antibody staining process consisted of a blocking step for 15 min in bovine serum albumin (BSA, 5 mg/ml) followed by a 40 minutes incubation at room temperature with the primary antibody. After washing with DPBS, slides were incubated for 30 min with a secondary antibody and eventually rinsed with DPBS and air dried. Slides were mounted with Vectashield (Vector Laboratories). Primary antibodies were directed against epitopes for the inflammatory markers CD68 (macrophage) (refs. 18,19; herein incorporated by reference in their entireties) MPO (neutrophil) (ref. 20; herein incorporated by reference in its entirety) or the inflammation-related proteins IL1β, TNFα, IL-10, IL-13, CD206 (M2 macrophage) (refs. 21-25; herein incorporated by reference in their entireties) and CD86 (M1 macrophage) (ref. 26; herein incorporated by reference in its entirety). Antibodies directed against the ECM in regenerating bladder tissue (including COL4A3 and fibronectin) were also utilized. Alexa Red 555 or FITC conjugated secondary antibodies (Molecular Probes) were utilized for visualization (ref. 15; herein incorporated by reference in its entirety). […]

CD86+ M1 macrophages = assay: M1 macrophage subtype (CD86) distribution in regenerating bladder tissue; format: in vivo, rat; settings: for M1 macrophage levels, in words: 10 days to 5 weeks
Experimental: as §1, §2

[1] = test system: Rat Bladder Augmentation Model; assay: Lectin labelling of functional blood vessels in regenerated bladder; format: in vivo; settings: 5W post-augmentation
Experimental: In order to determine whether blood vessels in regenerating tissue underwent functional angiogenesis, a fluorochrome conjugated tomato lectin was injected into the animals immediately prior to euthanization to label potential angiogenic vessels. […] Magnification 400× (Scale bar, 50 μm).

Substance | Cytokine expression (shown as percentage of cells staining positive) Anti-inflammatory IL-13 (IL-13) [percentage] | percentage of cells staining positive for IL-13 (IL-13) [%] | number of M1 macrophages (CD86+ M1 macrophages; 5W post-augmentation) [cells/mm^2] | number of M1 macrophages (CD86+ M1 macrophages; 10D post-augmentation) [cells/mm^2] | M1 macrophage levels, in words (CD86+ M1 macrophages) | functional angiogenesis of newly formed blood vessels (lectin) [1]
C16-VVVAAAEEEKLMSQKMVD (SEQ ID NO:6) ({C16 alkyl}-VVVAAAEEEKLMSQKMVD-NH2) [SIS/AIFC-PA6, reference compound] | 20.4 ± 2.6 | 28.6±3.0 | 957.7±106.2 | 986.9±18.1 | – | –
C16-VVVAAAEEEMQMKKVLDS (SEQ ID NO:1) ({C16 alkyl}-VVVAAAEEEMQMKKVLDS-NH2) [SIS/AIF-PA1, anti-inflammatory peptide amphiphile, tested dip-coated on small intestinal submucosa (SIS) scaffold] | 26.1 ± 2.7 | 48.2±2.8 | 343.4±45.4 | – | dropped considerably; also recorded: significant decline over time | functional, patent blood vessels
C16-VVVAAAEEEHDMNKVLDL (SEQ ID NO:2) ({C16 alkyl}-VVVAAAEEEHDMNKVLDL-NH2) [SIS/AIF-PA2, anti-inflammatory peptide amphiphile, tested dip-coated on small intestinal submucosa (SIS) scaffold] | 32.0 ± 1.8 | 41.2±2.2 | 389.4±62.6 | – | Comparatively low numbers | functional, patent blood vessels
